Laboratory results reported in ChEMBL document CHEMBL1201862, “PubChem BioAssay data set” (2004).
Counter-ions that a name gives are not always drawn.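 Growth conditions: 96-well plates. Treatment: test compound, 48 hours, 5 concentrations. Analysis: linear interpolation between bracketing concentrations; unreached endpoints set to highest concentration. At the GI50, growth is halved.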 Calls of active or inactive are those of the source. Cut-off read from the data, not from the text of the source: active = GI50 up to about 1.1 µM and inactive = higher.

Legend:
Test in all cases: growth of human tumour cells (NCI), 48 h
[1] = test system: CCRF-CEM
[2] = test system: OVCAR-5
[3] = test system: M14
[4] = test system: A549
[5] = test system: OVCAR-8
[6] = test system: A498
[7] = test system: SK-MEL-5
[8] = test system: SR
[9] = test system: Hs-578T
[10] = test system: ACHN
[11] = test system: KM12
[12] = test system: PC-3
[13] = test system: NCI-H23
[14] = test system: NCI-H226
[15] = test system: UACC-257
[16] = test system: BT-549
[17] = test system: IGROV-1
[18] = test system: NCI-H522
[19] = test system: SK-MEL-2

Measured: GI50

COc1cccc2nc3ccccc3nc12
inactive: [1] 43.4 µM | [2] > 100 µM | [3] > 100 µM | [4] 54.2 µM | [5] 23.8 µM | [6] 76.9 µM | [7] 54.8 µM | [8] 44.1 µM | [9] > 100 µM | [10] 25.3 µM | [11] 74.1 µM | [12] 25.5 µM | [13] > 100 µM | [14] 45.5 µM | [15] 91.2 µM

CN1CCN(c2cc3c(cc2F)c(=O)c(C(=O)O)cn3C2CC2)CC1CC#N (stereo unspecified)
inactive: [1] > 100 µM | [2] > 100 µM | [16] > 100 µM | [4] > 100 µM | [5] > 100 µM | [6] > 100 µM | [7] > 100 µM | [8] > 100 µM | [10] > 100 µM | [11] > 100 µM | [13] > 100 µM | [17] > 100 µM | [14] > 100 µM | [15] > 100 µM

CCN(CC)C(=O)c1cc([N+](=O)[O-])c(=O)n2c1[nH]c1ccccc12
inactive: [1] > 100 µM | [18] > 100 µM | [2] > 100 µM | [3] > 100 µM | [4] > 100 µM | [5] > 100 µM | [7] > 100 µM | [8] > 100 µM | [9] > 100 µM | [10] > 100 µM | [11] > 100 µM | [12] > 100 µM | [13] > 100 µM | [17] > 100 µM | [14] > 100 µM | [15] > 100 µM

Cc1[nH]n(-c2nc(-c3ccccc3)cc(=O)[nH]2)c(=O)c1CCO
inactive: [1] > 100 µM | [2] > 100 µM | [3] > 100 µM | [4] > 100 µM | [19] > 100 µM | [5] > 100 µM | [7] > 100 µM | [9] > 100 µM | [10] > 100 µM | [11] > 100 µM | [12] > 100 µM | [13] > 100 µM | [17] > 100 µM | [14] > 100 µM | [15] > 100 µM

OC[C@@H]1CC#C/C=C\C#CC[C@@H]1CO
inactive: [2] > 100 µM | [3] > 100 µM | [19] > 100 µM | [5] > 100 µM | [7] > 100 µM | [11] > 100 µM | [13] > 100 µM | [17] > 100 µM

C/N=C(\SC)N(C)c1nc(=[N+](C)C)ss1.[O-][Cl+3]([O-])([O-])[O-]
inactive: [1] 4.17 µM | [18] 13.2 µM | [2] > 100 µM | [3] > 100 µM | [4] > 100 µM | [19] > 100 µM | [5] > 100 µM | [6] 4.61 µM | [7] 7.21 µM | [8] 56 µM | [10] > 100 µM | [11] > 100 µM | [13] > 100 µM | [17] > 100 µM | [14] > 100 µM | [15] > 100 µM

C#CCOCC12C=CC(O1)C1C(=O)N(C)C(=O)C12 (stereo unspecified)
inactive: [1] > 100 µM | [2] > 100 µM | [16] > 100 µM | [3] > 100 µM | [4] > 100 µM | [5] > 100 µM | [6] > 100 µM | [7] > 100 µM | [8] > 100 µM | [10] > 100 µM | [11] > 100 µM | [12] > 100 µM | [13] > 100 µM | [17] > 100 µM | [14] > 100 µM

OC(c1cc(C(O)(C(F)(F)F)C(F)(F)F)ncn1)(C(F)(F)F)C(F)(F)F
inactive: [1] > 10 µM | [18] > 10 µM | [3] > 10 µM | [4] > 10 µM | [19] > 10 µM | [5] > 10 µM | [6] > 10 µM | [7] > 10 µM | [8] > 10 µM | [9] > 10 µM | [10] > 10 µM | [11] > 10 µM | [12] > 10 µM | [13] > 10 µM | [17] > 10 µM | [14] > 10 µM | [15] > 10 µM

Cc1cc(C)c(N[S+]([O-])c2cccc(C(F)(F)F)c2)c(C)c1 (stereo unspecified)
inactive: [1] > 100 µM | [2] > 100 µM | [16] > 100 µM | [3] > 100 µM | [4] > 100 µM | [5] > 100 µM | [6] > 100 µM | [8] > 100 µM | [10] > 100 µM | [11] > 100 µM | [12] > 100 µM | [13] > 100 µM | [14] > 100 µM | [15] > 100 µM

CO/C(=N\N=C\c1cccc(Cl)c1)c1ccncc1
inactive: [1] > 10 µM | [18] > 10 µM | [2] > 10 µM | [16] > 10 µM | [3] > 10 µM | [4] > 10 µM | [19] > 10 µM | [5] > 10 µM | [8] > 10 µM | [10] > 10 µM | [11] > 10 µM | [12] > 10 µM | [13] > 10 µM | [14] > 10 µM | [15] > 10 µM

CCOC(=O)/C(=C\c1cn(C(C)=O)c2ccccc12)P(C)(=O)OCC (stereo unspecified)
inactive: [1] 57.3 µM | [18] 19.2 µM | [2] 68.7 µM | [16] 22.3 µM | [3] 16.7 µM | [4] 37.1 µM | [19] 39.8 µM | [5] 33.4 µM | [6] 28.8 µM | [7] 47.5 µM | [8] > 100 µM | [10] 26 µM | [11] 33.1 µM | [12] 52.5 µM | [17] 16.8 µM

CN(C)CCOC(=O)COc1ccc(Cl)cc1 [CENTROPHENOXINE HYDROCHLORIDE]
inactive: [1] > 100 µM | [18] > 100 µM | [2] > 100 µM | [3] > 100 µM | [4] > 100 µM | [19] > 100 µM | [5] > 100 µM | [6] 98.6 µM | [7] > 100 µM | [8] > 100 µM | [10] > 100 µM | [11] > 100 µM | [12] > 100 µM | [13] > 100 µM | [17] > 100 µM | [14] > 100 µM | [15] > 100 µM

CCN(CC)CCC(=O)NC1c2ccc(Cl)cc2Oc2c(C)cccc21 (stereo unspecified)
inactive: [1] 17.2 µM | [18] 17.1 µM | [2] 15.6 µM | [16] 13.9 µM | [3] 17.5 µM | [4] 16.5 µM | [5] 16.9 µM | [7] 13.3 µM | [8] 18.5 µM | [11] 15.6 µM | [12] 13.2 µM | [13] 17.4 µM | [17] 13 µM | [15] 17.1 µM
